# Data as given in patent publication US8722937B2 (priority 2006, dated 2014).
# Like-named read-outs stand apart in the source and are kept apart here.
# Legend:
# S. aureus (ATCC 25923) [1] = test: microbe, parasite or virus in culture; format: cell-based, Staphylococcus aureus; conditions: 24 h, 37° C.; for zone of inhibition at 20 µg/disc: Staphylococcus aureus, ATCC25923
# S. aureus (ATCC 25923) [2] = test: Agar dilution minimum inhibitory concentration (MIC), S. aureus; format: cell-based, Staphylococcus aureus; conditions: serial dilution in 24-well plate, NCCLS; for MIC: Staphylococcus aureus, ATCC25923, read-out: Minimum inhibitory concentration (MIC) against S. aureus (ATCC 25923)
# B. anthracis (USF 848) [3] = test: microbe, parasite or virus in culture; format: cell-based, Bacillus anthracis; conditions: 24 h, 37° C.; for zone of inhibition at 20 µg/disc: Bacillus anthracis
# [4] = system: methicillin-resistant S. aureus (MRSA); test: microbe, parasite or virus in culture; format: cell-based, Staphylococcus aureus; conditions: 24 h, 37° C.; for zone of inhibition at 20 µg/disc: Staphylococcus aureus, MRSA, read-out: Average zones of growth inhibition of MRSA (USF-652-659, 919-920)
# B. anthracis (USF 848) [5] = test: microbe, parasite or virus in culture; format: cell-based, Bacillus anthracis; conditions: for MIC: Bacillus anthracis, read-out: Minimum inhibitory concentration (MIC) against B. anthracis (USF 848)
# [6] = system: E. coli (K12; ATCC 23590); test: Kirby-Bauer zones of inhibition, E. coli; format: cell-based, Escherichia coli; conditions: full or partial not stated
# [7] = read-out: Zones of growth inhibition of S. aureus (ATCC 25923), areas of partial inhibition
# [8] = read-out: Zones of growth inhibition of B. anthracis (USF 848), areas of partial growth inhibition
# [9] = read-out: Zones of growth inhibition of B. anthracis (USF 848)
# [10] = read-out: Zones of growth inhibition of S. aureus (ATCC 25923)
structure (smiles),measurement,setting,value
"CCSSc1ccccn1 [Compound 42b, Ethyl 2-pyridinyl Disulfide]","activity against S. aureus (ATCC 25923) in Kirby-Bauer assay, in words",S. aureus (ATCC 25923) [1],some activity
same,zone of inhibition at 20 µg/disc,S. aureus (ATCC 25923) [1]; [7],21 mm
same,MIC,S. aureus (ATCC 25923) [2],32 µg/mL
same,zone of inhibition at 20 µg/disc,B. anthracis (USF 848) [3]; [8],27 mm
"CCC(C)SSc1ccccc1Cl (stereo not drawn) [Compound 34d, s-Butyl o-chlorophenyl Disulfide]",zone of inhibition at 20 µg/disc,S. aureus (ATCC 25923) [1]; [7],10 mm
"CCSSc1cccc([N+](=O)[O-])c1 [Compound 43b, Ethyl m-nitrophenyl Disulfide]",zone of inhibition at 20 µg/disc,S. aureus (ATCC 25923) [1]; [7],45 mm
same,zone of inhibition at 20 µg/disc,[4],12 mm
same,MIC,S. aureus (ATCC 25923) [2],48 µg/mL
same,zone of inhibition at 20 µg/disc,B. anthracis (USF 848) [3]; [9],32 mm
same,zone of inhibition at 20 µg/disc,B. anthracis (USF 848) [3]; [8],40 mm
same,MIC,B. anthracis (USF 848) [5],0.38 µg/mL
"CC(C)SSc1ccccn1 [Compound 42c, Isopropyl 2-pyridinyl Disulfide]",zone of inhibition at 20 µg/disc,S. aureus (ATCC 25923) [1]; [10],0 mm
same,zone of inhibition at 20 µg/disc,B. anthracis (USF 848) [3]; [8],16 mm
"Cc1ccc(SSC(C)C)cc1C [Compound 35c, 3,4-Dimethylphenyl Isopropyl Disulfide]",zone of inhibition at 20 µg/disc,S. aureus (ATCC 25923) [1]; [7],9 mm
"CCC(C)SSc1cccc([N+](=O)[O-])c1 (stereo not drawn) [Compound 43d, s-Butyl m-nitrophenyl Disulfide]",Zones of growth inhibition of S. aureus (ATCC 25923),S. aureus (ATCC 25923) [1],25 (45) mm
same,"Zones of growth inhibition of S. aureus (ATCC 25923), areas of partial inhibition",S. aureus (ATCC 25923) [1],25 (45) mm
same,zone of inhibition at 20 µg/disc,S. aureus (ATCC 25923) [1]; [10],25 mm
same,zone of inhibition at 20 µg/disc,S. aureus (ATCC 25923) [1]; [7],45 mm
same,zone of inhibition at 20 µg/disc,[4],22 mm
same,MIC,S. aureus (ATCC 25923) [2],2 µg/mL
same,zone of inhibition at 20 µg/disc,B. anthracis (USF 848) [3]; [9],27 mm
same,zone of inhibition at 20 µg/disc,B. anthracis (USF 848) [3]; [8],41 mm
same,MIC,B. anthracis (USF 848) [5],< 0.125 µg/mL
CCSSc1ccccc1[N+](=O)[O-] [Compound 44b],Zones of growth inhibition of S. aureus (ATCC 25923),S. aureus (ATCC 25923) [1],29(40) mm
same,"Zones of growth inhibition of S. aureus (ATCC 25923), areas of partial inhibition",S. aureus (ATCC 25923) [1],29(40) mm
same,Minimum inhibitory concentration (MIC) against S. aureus (ATCC 25923),S. aureus (ATCC 25923) [2],16 µg/mL
same,Zones of growth inhibition of B. anthracis (USF 848),B. anthracis (USF 848) [3],35 mm
same,Minimum inhibitory concentration (MIC) against B. anthracis (USF 848),B. anthracis (USF 848) [5],0.63 µg/mL
"CCSSc1ccccc1Cl [Compound 34b, o-Chlorophenyl Ethyl Disulfide]",zone of inhibition at 20 µg/disc,S. aureus (ATCC 25923) [1]; [7],9 mm
"CSSc1ccccc1CO [Compound 41a, o-(Hydroxymethyl)phenyl Methyl Disulfide]",zone of inhibition at 20 µg/disc,S. aureus (ATCC 25923) [1]; [7],14 mm
same,MIC,S. aureus (ATCC 25923) [2],64 µg/mL
"CSSc1ccccc1[N+](=O)[O-] [Compound 44a, Methyl o-nitrophenyl Methyl Disulfide]",Zones of growth inhibition of S. aureus (ATCC 25923),S. aureus (ATCC 25923) [1],34(37) mm
same,"Zones of growth inhibition of S. aureus (ATCC 25923), areas of partial inhibition",S. aureus (ATCC 25923) [1],34(37) mm
same,"Average zones of growth inhibition of MRSA (USF-652-659, 919-920)",[4],26 mm
same,Minimum inhibitory concentration (MIC) against S. aureus (ATCC 25923),S. aureus (ATCC 25923) [2],64 µg/mL
same,Zones of growth inhibition of B. anthracis (USF 848),B. anthracis (USF 848) [3],31 mm
same,Minimum inhibitory concentration (MIC) against B. anthracis (USF 848),B. anthracis (USF 848) [5],4 µg/mL
same,zone of inhibition against E. coli,[6],9 mm
"CCCSSc1ccccc1Cl [Compound 34e, o-Chlorophenyl n-propyl Disulfide]",zone of inhibition at 20 µg/disc,S. aureus (ATCC 25923) [1]; [10],0 mm
"CCC(C)SSc1ccccc1[N+](=O)[O-] (stereo not drawn) [Compound 44d, s-Butyl o-nitrophenyl Disulfide]",Zones of growth inhibition of S. aureus (ATCC 25923),S. aureus (ATCC 25923) [1],15 (24) mm
same,"Zones of growth inhibition of S. aureus (ATCC 25923), areas of partial inhibition",S. aureus (ATCC 25923) [1],15 (24) mm
same,zone of inhibition at 20 µg/disc,S. aureus (ATCC 25923) [1]; [10],15 mm
same,zone of inhibition at 20 µg/disc,S. aureus (ATCC 25923) [1]; [7],24 mm
same,MIC,S. aureus (ATCC 25923) [2],16 µg/mL
same,zone of inhibition at 20 µg/disc,B. anthracis (USF 848) [3]; [9],23 mm
same,MIC,B. anthracis (USF 848) [5],0.75 µg/mL
"CCCCSSc1ccccc1Cl [Compound 34f, n-Butyl o-chlorophenyl Disulfide]",zone of inhibition at 20 µg/disc,S. aureus (ATCC 25923) [1]; [7],9 mm
"CCCSSc1ccc(F)c(F)c1 [Compound 33e, 3,4-Difluorophenyl n-propyl Disulfide]",zone of inhibition at 20 µg/disc,S. aureus (ATCC 25923) [1]; [10],0 mm
"CCSSc1ccc(F)c(F)c1 [Compound 33b, 3,4-Difluorophenyl Ethyl Disulfide]",zone of inhibition at 20 µg/disc,S. aureus (ATCC 25923) [1]; [7],9 mm
"CC(C)SSc1ccc(F)c(F)c1 [Compound 33c, 3,4-Difluorophenyl Isopropyl Disulfide]",zone of inhibition at 20 µg/disc,S. aureus (ATCC 25923) [1]; [7],9 mm
"CSSc1ccc(C)c(C)c1 [Compound 35a, 3,4-Dimethylphenyl Methyl Disulfide]",zone of inhibition at 20 µg/disc,S. aureus (ATCC 25923) [1]; [7],10 mm
"CSSc1ccccn1 [Compound 42a, Methyl 2-pyridinyl Disulfide]","activity against S. aureus (ATCC 25923) in Kirby-Bauer assay, in words",S. aureus (ATCC 25923) [1],some activity
same,zone of inhibition at 20 µg/disc,S. aureus (ATCC 25923) [1]; [10],16 mm
same,zone of inhibition at 20 µg/disc,S. aureus (ATCC 25923) [1]; [7],23 mm
same,MIC,S. aureus (ATCC 25923) [2],64 µg/mL
"CSSc1ccc(N)cc1 [Compound 39a, p-Aminophenyl Methyl Disulfide]",zone of inhibition at 20 µg/disc,S. aureus (ATCC 25923) [1]; [10],0 mm
"CSSc1ccc(NC(C)=O)cc1 [Compound 46a, p-Acetamidophenyl Methyl Disulfide]",zone of inhibition at 20 µg/disc,S. aureus (ATCC 25923) [1]; [7],20 mm
same,zone of inhibition at 20 µg/disc,B. anthracis (USF 848) [3]; [8],23 mm
same,MIC,B. anthracis (USF 848) [5],8 µg/mL
CCSSCCNC(=O)CCNC(=O)[C@H](O)C(C)(C)COP(=O)(O)OP(=O)(O)OC[C@H]1O[C@@H](n2cnc3c(N)ncnc32)[C@H](O)[C@@H]1OP(=O)(O)O [Compound 25b],"Zones of growth inhibition, S. aureus",S. aureus (ATCC 25923) [1],0 mm
same,"Zones of growth inhibition, MRSA",[4],0 mm
"CC(C)SSc1cccc([N+](=O)[O-])c1 [Compound 43c, Isopropyl m-nitrophenyl Disulfide]",Zones of growth inhibition of S. aureus (ATCC 25923),S. aureus (ATCC 25923) [1],55 (85) mm
same,"Zones of growth inhibition of S. aureus (ATCC 25923), areas of partial inhibition",S. aureus (ATCC 25923) [1],55 (85) mm
same,zone of inhibition at 20 µg/disc,S. aureus (ATCC 25923) [1]; [10],55 mm
same,zone of inhibition at 20 µg/disc,S. aureus (ATCC 25923) [1]; [7],85 mm
same,zone of inhibition at 20 µg/disc,[4],38 mm
same,MIC,S. aureus (ATCC 25923) [2],0.4 µg/mL
same,zone of inhibition at 20 µg/disc,B. anthracis (USF 848) [3]; [9],30 mm
same,zone of inhibition at 20 µg/disc,B. anthracis (USF 848) [3]; [8],54 mm
same,MIC,B. anthracis (USF 848) [5],< 0.125 µg/mL
CCSS(C)(=O)=O [Compound 26b],"Zones of growth inhibition, S. aureus",S. aureus (ATCC 25923) [1],19 mm
same,"Zones of growth inhibition, MRSA",[4],20 mm
"CCCCSSc1ccc(C)c(C)c1 [Compound 35f, n-Butyl 3,4-dimethylphenyl Disulfide]",zone of inhibition at 20 µg/disc,S. aureus (ATCC 25923) [1]; [10],0 mm
CCC(C)SS(C)(=O)=O (stereo not drawn) [Compound 26c],"Zones of growth inhibition, S. aureus",S. aureus (ATCC 25923) [1],23 mm
same,"Zones of growth inhibition, MRSA",[4],23 mm
"CC(C)SSc1ccccc1[N+](=O)[O-] [Compound 44c, Isopropyl o-nitrophenyl Disulfide]",Zones of growth inhibition of S. aureus (ATCC 25923),S. aureus (ATCC 25923) [1],17 (31) mm
same,"Zones of growth inhibition of S. aureus (ATCC 25923), areas of partial inhibition",S. aureus (ATCC 25923) [1],17 (31) mm
same,zone of inhibition at 20 µg/disc,S. aureus (ATCC 25923) [1]; [10],17 mm
same,zone of inhibition at 20 µg/disc,S. aureus (ATCC 25923) [1]; [7],31 mm
same,zone of inhibition at 20 µg/disc,[4],20 mm
same,MIC,S. aureus (ATCC 25923) [2],6 µg/mL
same,zone of inhibition at 20 µg/disc,B. anthracis (USF 848) [3]; [9],16 mm
same,zone of inhibition at 20 µg/disc,B. anthracis (USF 848) [3]; [8],27 mm
same,MIC,B. anthracis (USF 848) [5],0.63 µg/mL
"CC(C)SSc1ccccc1Cl [Compound 34c, o-Chlorophenyl Isopropyl Disulfide]",zone of inhibition at 20 µg/disc,S. aureus (ATCC 25923) [1]; [7],11 mm
"CCCSSc1ccc(C)c(C)c1 [Compound 35e, 3,4-Dimethylphenyl n-propyl Disulfide]",zone of inhibition at 20 µg/disc,S. aureus (ATCC 25923) [1]; [10],0 mm
"CCC(C)SSc1ccc(C)c(C)c1 (stereo not drawn) [Compound 35d, sec-Butyl 3,4-dimethylphenyl Disulfide]",zone of inhibition at 20 µg/disc,S. aureus (ATCC 25923) [1]; [10],0 mm
"CSSc1ccc(F)c(F)c1 [Compound 33a, 3,4-Difluorophenyl Methyl Disulfide]",zone of inhibition at 20 µg/disc,S. aureus (ATCC 25923) [1]; [7],11 mm
"CCCCSSc1ccc(F)c(F)c1 [Compound 33f, n-Butyl 3,4-difluorophenyl Disulfide]",zone of inhibition at 20 µg/disc,S. aureus (ATCC 25923) [1]; [7],10 mm
"CCSSc1ccc(C)c(C)c1 [Compound 35b, 3,4-Dimethylphenyl ethyl disulfide]",zone of inhibition at 20 µg/disc,S. aureus (ATCC 25923) [1]; [10],0 mm
"CCC(C)SSc1ccccn1 (stereo not drawn) [Compound 42d, s-Butyl 2-pyridinyl Disulfide]",zone of inhibition at 20 µg/disc,S. aureus (ATCC 25923) [1]; [10],0 mm
same,zone of inhibition at 20 µg/disc,B. anthracis (USF 848) [3]; [8],17 mm
"CSS(C)(=O)=O [Compound 26a, reference compound]","Zones of growth inhibition, S. aureus",S. aureus (ATCC 25923) [1],22 mm
same,"Zones of growth inhibition, MRSA",[4],23 mm
"CCOc1cccc(SSC)c1 [Compound 36a, m-Ethoxyphenyl Methyl Disulfide]",zone of inhibition at 20 µg/disc,S. aureus (ATCC 25923) [1]; [7],9 mm
"CCC(C)SSc1ccc(F)c(F)c1 (stereo not drawn) [Compound 33d, Sec-Butyl 3,4-Difluorophenyl Disulfide]",zone of inhibition at 20 µg/disc,S. aureus (ATCC 25923) [1]; [7],9 mm
